In ChEMBL document CHEMBL1641395, “Highly brominated antimicrobial metabolites from a marine Pseudoalteromonas sp” (J Nat Prod, 2010):

system: Staphylococcus aureus; assay: Antibacterial activity against methicillin-resistant Staphylococcus aureus ATCC 43300 after 12 hrs by Broth microdilution method; type: functional, organism-based; conditions: ATCC 43300, 12 h

Oc1c(Br)cc(Br)cc1-c1cc(Br)cc(Br)c1O [BROMOPHENE] and Oc1ccc(Br)cc1-c1cc(Br)cc(Br)c1O are within 1.5-fold of each other in IC50: 2140 nM for the first, 2190 nM for the second.

Compared with Brc1cc(Br)c2oc3c(Br)c(Br)[nH]c3c2c1, Oc1c(Br)cc(Br)cc1-c1[nH]c(Br)c(Br)c1Br [PENTABROMOPSEUDILIN] is 19-fold lower in IC50: 1930 nM for the first, 100 nM for the second.

In the case of CN[C@H](CC(C)C)C(=O)N[C@H]1C(=O)N[C@@H](CC(N)=O)C(=O)N[C@H]2C(=O)N[C@H]3C(=O)N[C@H](C(=O)N[C@H](C(=O)O)c4cc(O)cc(O)c4-c4cc3ccc4O)[C@H](O)c3ccc(c(Cl)c3)Oc3cc2cc(c3O[C@@H]2O[C@H](CO)[C@@H](O)[C@H](O)[C@H]2O[C@H]2C[C@](C)(N)[C@H](O)[C@H](C)O2)Oc2ccc(cc2Cl)[C@H]1O [VANCOMYCIN], the IC50 is reported as 910 nM.
